Source: US20200222323A1, “ADRENALIN-CONTAINING DOUBLE LAYERED LIPID VESICLES FOR USE IN THE TREATMENT OF CARDIAC EMERGENCIES” (UNIVERSITÀ DEGLI STUDI DI CAGLIARI, priority 2017, published 2020)

How the values were obtained:
[1] = control solution, same conditions, PBS pH 7.4, 37° C.
Description: The in vitro studies on the release of adrenaline from the liposomal formulations were conducted with a modified dialysis technique or by means of a “sample and separate” method.
In the former case, a cellulose membrane (Spectra/Por®: cut-off 12-14 kDa MW, pore size 3 nm, Spectrum Laboratories Inc., USA) was positioned between the two compartments of a Franz vertical diffusion cell (Rofarma, Milan). The receptor compartment, with a capacity of 6.5 ml and a diffusion area of 0.636 cm2, was filled with a phosphate buffer solution (PBS pH 7.4) containing sodium metabisulphite (0.053 M), stirred constantly by a small magnetic stirrer at a controlled temperature of 37° C. for the whole duration of the experiment.
At 1-hour time intervals, for the 8 hours of the experiment, 1 ml of the solution in the receptor compartment was removed and restored with fresh buffer. The amount of adrenaline contained in the samples removed was analysed by HPLC.
Use was made of an XTerra C18 column (3.5 μiη, 4.6×150 mm, Waters), with a mobile phase composed of 86.5% water, 13.45% acetonitrile and 0.05% acetic acid (v/v) at a flow rate of 0.8 ml/min. A calibration curve was constructed using standard solutions (100-1 ng/μl), having a correlation coefficient (R2) of 0.999.

[2] = cited from earlier work
[3] = system: human umbilical vein endothelial cells (HUVECs); conditions: HUVEC, 5 hours treatment, adrenaline 3-120 μg/ml, MTT
Description: The biocompatibility of the formulation was tested on human umbilical vein endothelial cells (HUVECs) obtained from a pool of healthy donors (Promocell, Germany). The cells were cultured in Endothelial Cell Growth Medium 2 (ECGM 2, Promocell) enriched with penicillin (50 units/ml) and streptomycin (50 mg/ml), and maintained in an incubator with a humidified atmosphere, CO2 (5%) at 37° C. The cells were seeded in 96-well plates 24 hours before the treatment with liposomes (density 4×10^4 cells/well). […] At the end of the treatment, the medium was removed and replaced with 100 μl of a solution of 3-(4,5-dimethylthiazol-2-yl)-2,5-diphenyltetrazolium bromide (MTT) in PBS (0.5 mg/ml). After 4 hours of incubation at 37° C., the MTT was removed and 100 μl of dimethyl sulphoxide (DMSO) was added in each well. Absorbance was measured at 570 nm by means of a Synergy 4 plate reader (BioTek, Winooski, Vt., USA). The results are expressed as a percentage of viable cells compared to the untreated cells.

## CNCC(O)c1ccc(O)c(O)c1 (stereo not drawn) [adrenaline]
[1]
  total amount of drug released after the 8 hours of the experiment: 70±3%
[2]
  half-life in vivo: ≤ 5 min
[3]
  viability of treated versus untreated cells: no significant difference
